{
  "source": "paper PMC12567244",
  "about": "“Innovative Amino-Functionalization of Pyrido[2,3-d]pyrimidine Scaffolds for Broad Therapeutic Applications Supported by Computational Analyses” (Pharmaceuticals, 2025)",
  "key": {"[1]": {"test_system": "MCF-7 cells", "assay": "Cell cycle analysis by flow cytometry", "type": "cell-based, human", "conditions": "MCF-7, 48 h incubation"}, "[2]": {"test_system": "MCF-7 cells", "assay": "Annexin V-FITC/PI apoptosis analysis", "type": "cell-based, human", "conditions": "MCF-7, 48 h"}, "[3]": {"test_system": "MCF-7 cells", "assay": "Wound healing (scratch) assay", "type": "cell-based, human"}, "[4]": {"test_system": "E. coli ATCC25915", "assay": "MIC, two-fold serial dilution, E. coli", "type": "cell-based", "conditions": "Escherichia coli"}, "[5]": {"test_system": "S. aureus ATCC25923", "assay": "MIC, two-fold serial dilution, S. aureus", "type": "cell-based, Staphylococcus aureus", "conditions": "Staphylococcus aureus, ATCC25923"}, "[6]": {"test_system": "E. faecalis ATCC29212", "assay": "MIC, two-fold serial dilution, E. faecalis", "type": "cell-based, Enterococcus faecalis", "conditions": "Enterococcus faecalis, ATCC29212"}, "[7]": {"test_system": "P. aeruginosa ATCC10145", "assay": "MIC, two-fold serial dilution, P. aeruginosa", "type": "cell-based", "conditions": "Pseudomonas aeruginosa"}, "[8]": {"target": "T1, mutant EGFRL858R (Homo sapiens, UniProt P00533, L858R)", "T1 sequence (P00533 25-1210 L858R)": "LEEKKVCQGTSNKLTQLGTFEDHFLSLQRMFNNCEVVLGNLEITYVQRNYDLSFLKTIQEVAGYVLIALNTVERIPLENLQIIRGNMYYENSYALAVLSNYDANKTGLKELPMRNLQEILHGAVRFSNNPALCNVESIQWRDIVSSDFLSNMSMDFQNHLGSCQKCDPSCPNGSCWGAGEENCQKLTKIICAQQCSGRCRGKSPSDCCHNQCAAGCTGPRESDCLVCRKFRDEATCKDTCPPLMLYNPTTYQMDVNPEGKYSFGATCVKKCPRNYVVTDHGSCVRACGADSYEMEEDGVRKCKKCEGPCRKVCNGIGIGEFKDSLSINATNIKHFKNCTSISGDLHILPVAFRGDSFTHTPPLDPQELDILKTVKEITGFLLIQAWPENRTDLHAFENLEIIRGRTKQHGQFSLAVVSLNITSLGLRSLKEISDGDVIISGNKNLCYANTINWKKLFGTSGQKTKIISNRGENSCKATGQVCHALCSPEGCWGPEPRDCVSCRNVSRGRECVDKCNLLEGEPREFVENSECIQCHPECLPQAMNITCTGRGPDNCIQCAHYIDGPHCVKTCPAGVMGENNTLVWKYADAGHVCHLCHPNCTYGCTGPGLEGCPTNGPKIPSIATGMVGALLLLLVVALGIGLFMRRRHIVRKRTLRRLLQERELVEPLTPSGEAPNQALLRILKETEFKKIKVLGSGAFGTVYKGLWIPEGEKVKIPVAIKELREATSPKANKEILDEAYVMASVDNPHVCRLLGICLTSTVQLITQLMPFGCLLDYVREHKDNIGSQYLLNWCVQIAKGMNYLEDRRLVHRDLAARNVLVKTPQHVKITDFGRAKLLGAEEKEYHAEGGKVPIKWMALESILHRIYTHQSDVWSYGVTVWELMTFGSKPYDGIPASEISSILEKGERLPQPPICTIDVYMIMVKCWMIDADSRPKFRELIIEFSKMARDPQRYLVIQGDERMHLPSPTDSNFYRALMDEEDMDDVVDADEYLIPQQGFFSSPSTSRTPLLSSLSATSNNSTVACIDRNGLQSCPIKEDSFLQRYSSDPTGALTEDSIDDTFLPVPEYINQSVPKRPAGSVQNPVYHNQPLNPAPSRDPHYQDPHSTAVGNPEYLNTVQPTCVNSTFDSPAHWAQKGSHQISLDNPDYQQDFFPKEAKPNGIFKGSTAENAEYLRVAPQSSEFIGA"}, "[9]": {"target": "T2, EGFRT790M (Homo sapiens, UniProt P00533, T790M)", "T2 sequence (P00533 25-1210 T790M)": "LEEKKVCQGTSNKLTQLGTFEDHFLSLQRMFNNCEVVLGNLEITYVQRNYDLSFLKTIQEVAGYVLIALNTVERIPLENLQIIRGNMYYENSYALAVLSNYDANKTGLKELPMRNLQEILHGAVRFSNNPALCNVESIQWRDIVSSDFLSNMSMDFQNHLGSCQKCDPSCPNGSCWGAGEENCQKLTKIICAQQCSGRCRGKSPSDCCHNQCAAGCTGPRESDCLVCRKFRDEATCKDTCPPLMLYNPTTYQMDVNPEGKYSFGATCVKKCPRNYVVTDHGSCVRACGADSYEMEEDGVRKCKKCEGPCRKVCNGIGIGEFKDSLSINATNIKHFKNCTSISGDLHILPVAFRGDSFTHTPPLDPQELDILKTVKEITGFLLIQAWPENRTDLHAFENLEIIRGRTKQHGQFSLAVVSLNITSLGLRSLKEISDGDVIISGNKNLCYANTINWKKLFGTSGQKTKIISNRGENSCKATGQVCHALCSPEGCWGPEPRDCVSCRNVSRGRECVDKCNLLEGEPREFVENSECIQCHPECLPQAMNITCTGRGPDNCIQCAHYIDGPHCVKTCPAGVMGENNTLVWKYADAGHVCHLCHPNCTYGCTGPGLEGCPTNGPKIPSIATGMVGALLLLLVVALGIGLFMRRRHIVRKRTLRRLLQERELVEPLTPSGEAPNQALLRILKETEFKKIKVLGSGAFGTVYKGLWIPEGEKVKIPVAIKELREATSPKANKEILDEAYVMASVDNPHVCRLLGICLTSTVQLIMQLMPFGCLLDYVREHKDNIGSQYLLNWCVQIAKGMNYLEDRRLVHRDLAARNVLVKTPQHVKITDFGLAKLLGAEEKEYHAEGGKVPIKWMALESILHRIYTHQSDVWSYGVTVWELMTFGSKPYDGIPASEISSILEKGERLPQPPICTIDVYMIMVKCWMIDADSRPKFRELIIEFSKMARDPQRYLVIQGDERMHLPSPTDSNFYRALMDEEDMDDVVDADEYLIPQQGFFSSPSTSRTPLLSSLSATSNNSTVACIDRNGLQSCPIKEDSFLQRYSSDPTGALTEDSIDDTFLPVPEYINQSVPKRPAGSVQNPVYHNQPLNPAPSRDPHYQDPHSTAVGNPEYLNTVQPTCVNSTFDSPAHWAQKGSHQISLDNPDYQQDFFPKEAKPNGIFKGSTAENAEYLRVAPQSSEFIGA"}, "[10]": {"assay": "in vitro", "conditions": "human, WI-38 normal lung fibroblast cells"}, "[11]": {"target": "T1, mutant EGFRL858R", "assay": "biochemical"}, "[12]": {"target": "T2, EGFRT790M", "assay": "biochemical"}, "[13]": {"test_system": "cervical carcinoma (HeLa)", "assay": "MTT cytotoxicity assay, HeLa"}, "[14]": {"test_system": "breast carcinoma (MCF-7)", "assay": "MTT cytotoxicity assay, MCF-7"}, "[15]": {"test_system": "liver carcinoma (HepG-2)", "assay": "MTT cytotoxicity assay, HepG-2"}, "[16]": {"target": "EGFRWT (Homo sapiens, UniProt P00533)", "sequence (P00533 25-1210)": "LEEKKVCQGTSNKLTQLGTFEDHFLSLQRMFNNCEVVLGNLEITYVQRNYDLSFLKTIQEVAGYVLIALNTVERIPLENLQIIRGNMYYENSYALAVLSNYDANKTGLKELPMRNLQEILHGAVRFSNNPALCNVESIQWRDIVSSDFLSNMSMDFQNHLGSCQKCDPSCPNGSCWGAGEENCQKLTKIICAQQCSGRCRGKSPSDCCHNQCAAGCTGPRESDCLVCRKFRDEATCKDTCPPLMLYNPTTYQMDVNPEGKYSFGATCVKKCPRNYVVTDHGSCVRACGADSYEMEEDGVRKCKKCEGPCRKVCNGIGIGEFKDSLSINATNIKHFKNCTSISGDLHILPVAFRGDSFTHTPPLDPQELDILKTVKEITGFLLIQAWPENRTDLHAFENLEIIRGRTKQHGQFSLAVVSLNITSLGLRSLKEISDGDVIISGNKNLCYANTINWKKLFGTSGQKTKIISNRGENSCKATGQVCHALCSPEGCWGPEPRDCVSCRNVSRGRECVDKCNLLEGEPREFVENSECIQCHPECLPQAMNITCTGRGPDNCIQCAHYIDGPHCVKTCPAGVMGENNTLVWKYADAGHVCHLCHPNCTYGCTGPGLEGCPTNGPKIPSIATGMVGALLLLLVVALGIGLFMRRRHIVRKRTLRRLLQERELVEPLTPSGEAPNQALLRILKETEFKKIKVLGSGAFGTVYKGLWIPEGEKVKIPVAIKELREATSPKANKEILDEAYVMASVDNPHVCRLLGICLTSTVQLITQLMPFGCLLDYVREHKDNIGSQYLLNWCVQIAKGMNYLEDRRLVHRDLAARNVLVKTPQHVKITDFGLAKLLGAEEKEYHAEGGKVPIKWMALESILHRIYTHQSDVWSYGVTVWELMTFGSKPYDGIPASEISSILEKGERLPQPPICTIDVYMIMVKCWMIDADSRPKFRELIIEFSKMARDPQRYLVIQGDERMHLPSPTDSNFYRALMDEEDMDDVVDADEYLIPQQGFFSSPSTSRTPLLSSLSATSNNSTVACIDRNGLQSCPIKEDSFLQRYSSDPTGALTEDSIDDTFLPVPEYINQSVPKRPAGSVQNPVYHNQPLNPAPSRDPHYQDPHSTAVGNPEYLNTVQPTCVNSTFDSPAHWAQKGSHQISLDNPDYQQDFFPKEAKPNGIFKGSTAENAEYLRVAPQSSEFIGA", "assay": "HTRF enzyme inhibitory assay, EGFR WT"}, "[17]": {"test_system": "E.coli ATCC25915", "assay": "Well diffusion inhibition zone, E. coli", "conditions": "Escherichia coli, ATCC25915, read-out: Inhibition zone E.coli ATCC25915"}, "[18]": {"test_system": "E. faecalis ATCC29212", "assay": "Well diffusion inhibition zone, E. faecalis", "conditions": "Enterococcus faecalis, ATCC29212, read-out: Inhibition zone E. faecalis ATCC29212"}, "[19]": {"test_system": "P. aeruginosa ATCC10145", "assay": "Well diffusion inhibition zone, P. aeruginosa", "conditions": "Pseudomonas aeruginosa, ATCC10145, read-out: Inhibition zone P. aeruginosa ATCC10145"}, "[20]": {"test_system": "HeLa, HepG-2, and MCF-7", "assay": "MTT cytotoxicity, range over the cancer cell panel", "conditions": "read-out: IC50 across HeLa, HepG-2 and MCF-7; range over all examined cancer cell lines"}},
  "note": "“And” between values parts separate entries of the source, which are not always exact repeats. Equal entries are not always repeated. Where two headings read alike, the source gives them in different places.",
  "data": [
    {"smiles": "CCOC(=O)c1c(N)nc2c(c1-c1ccc(Cl)cc1)c(=O)n(C)c(=O)n2C", "note": "[Compound 1, Ethyl 7-amino-5-(4-chlorophenyl)-1,3-dimethyl-2,4-dioxo-1,2,3,4-tetrahydropyrido[2,3-d]pyrimidine-6-carboxylate]", "values": [
      {"measurement": "%G0-G1", "setting": "[1]", "result": 74.86, "unit": "%"},
      {"measurement": "%G2/M", "setting": "[1]", "result": 1.75, "unit": "%"},
      {"measurement": "%S", "setting": "[1]", "result": 22.79, "unit": "%"},
      {"measurement": "Apoptosis Early", "setting": "[2]", "result": 5.86, "unit": "%"},
      {"measurement": "Apoptosis Late", "setting": "[2]", "result": 16.62, "unit": "%"},
      {"measurement": "Apoptosis Total", "setting": "[2]", "result": 26.37, "unit": "%"},
      {"measurement": "Necrosis", "setting": "[2]", "result": 3.89, "unit": "%"},
      {"measurement": "Length of migration", "setting": "[3]; MCF-7, 72 h", "result": "0.31–0.32 mm"},
      {"measurement": "Migrated cells area", "setting": "[3]; MCF-7, 72 h", "result": 0.564, "unit": "mm^2"},
      {"measurement": "Length of migration", "setting": "[3]; MCF-7, 72 h, listed as U1", "result": 0.31, "unit": "mm"},
      {"measurement": "% Closure (wound closure)", "setting": "[3]; MCF-7, after 72 h", "result": "69.63% and 69.63 ± 2.57%"},
      {"measurement": "MIC", "setting": "[4]", "result": 50, "unit": "µg/mL"},
      {"measurement": "MIC", "setting": "[5]", "result": 100, "unit": "µg/mL"},
      {"measurement": "MIC", "setting": "[6]", "result": 100, "unit": "µg/mL"},
      {"measurement": "MIC", "setting": "[7]", "result": 50, "unit": "µg/mL"},
      {"measurement": "%inh EGFR_L858R", "setting": "[8]; conc 0.01", "result": 9.88, "unit": "%"},
      {"measurement": "%inh EGFR_L858R", "setting": "[8]; conc 0.1", "result": 23.7, "unit": "%"},
      {"measurement": "%inh EGFR_L858R", "setting": "[8]; conc 1", "result": 40, "unit": "%"},
      {"measurement": "%inh EGFR_L858R", "setting": "[8]; conc 10", "result": 75.6, "unit": "%"},
      {"measurement": "%inh EGFR_L858R", "setting": "[8]; conc 100", "result": 93.7, "unit": "%"},
      {"measurement": "Fold-Change L858R/WT", "setting": "[8]; potency relative to wild-type EGFR", "result": "12 × and 12.44×"},
      {"measurement": "%inh EGFR_T790M", "setting": "[9]; conc 0.01", "result": 22.1, "unit": "%"},
      {"measurement": "%inh EGFR_T790M", "setting": "[9]; conc 0.1", "result": 51.1, "unit": "%"},
      {"measurement": "%inh EGFR_T790M", "setting": "[9]; conc 1", "result": 66.5, "unit": "%"},
      {"measurement": "%inh EGFR_T790M", "setting": "[9]; conc 10", "result": 82.2, "unit": "%"},
      {"measurement": "%inh EGFR_T790M", "setting": "[9]; conc 100", "result": 96.1, "unit": "%"},
      {"measurement": "IC50 at 48 h", "setting": "[10]", "result": "81.7 ± 4.1", "unit": "µM"},
      {"measurement": "IC50", "setting": "[11]", "result": "1.16 ± 0.036", "unit": "µM"},
      {"measurement": "IC50", "setting": "[12]", "result": "0.174 ± 0.006", "unit": "µM"},
      {"measurement": "SI HeLa", "setting": "[13]; IC50 WI-38 / IC50 HeLa", "result": 12.98},
      {"measurement": "IC50", "setting": "[13]; read-out: IC50 HeLa, MTT, mean ± SD of three measurements", "result": "6.29 ± 0.5", "unit": "µM"},
      {"measurement": "SI MCF-7", "setting": "[14]; IC50 WI-38 / IC50 MCF-7", "result": 20.51},
      {"measurement": "IC50", "setting": "[14]; read-out: IC50 MCF-7, MTT, mean ± SD of three measurements", "result": "3.98 ± 0.2", "unit": "µM"},
      {"measurement": "SI HepG-2", "setting": "[15]; IC50 WI-38 / IC50 HepG-2", "result": 13.83},
      {"measurement": "IC50", "setting": "[15]; read-out: IC50 HepG-2, MTT, mean ± SD of three measurements", "result": "5.9 ± 0.3", "unit": "µM"},
      {"measurement": "IC50", "setting": "[16]", "result": "0.093 ± 0.003", "unit": "µM"},
      {"measurement": "%inh EGFR WT", "setting": "[16]; conc 0.01", "result": 29.6, "unit": "%"},
      {"measurement": "%inh EGFR WT", "setting": "[16]; conc 0.1", "result": 51, "unit": "%"},
      {"measurement": "%inh EGFR WT", "setting": "[16]; conc 1", "result": 74.5, "unit": "%"},
      {"measurement": "%inh EGFR WT", "setting": "[16]; conc 10", "result": 85.3, "unit": "%"},
      {"measurement": "%inh EGFR WT", "setting": "[16]; conc 100", "result": 96.1, "unit": "%"},
      {"measurement": "zone of inhibition at 100 µg/mL", "setting": "[17]", "result": "9.5 ± 0.12", "unit": "mm"},
      {"measurement": "zone of inhibition at 100 µg/mL", "setting": "[18]", "result": "2 ± 0.05", "unit": "mm"},
      {"measurement": "zone of inhibition at 100 µg/mL", "setting": "[19]", "result": "10.5 ± 0.05", "unit": "mm"},
      {"measurement": "IC50", "setting": "[20]", "result": "3.98 to 6.29", "unit": "µM"}
    ]}
  ]
}
